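Cultured in 96-well plates, cells were exposed to test compound for 48 hours across five concentrations. GI50 is the concentration that inhibits growth by half.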 Active and inactive are the calls of the source. No stated cut-off is given here; in the data, active = GI50 up to about 1.1 µM and inactive = higher.
Assays:
Assay in all cases: NCI tumour cell line growth inhibition, 48 h
DMS-273 = system: DMS-273
HCT-15 = system: HCT-15
HT-29 = system: HT-29
LXFL 529 = system: LXFL 529
SK-MEL-28 = system: SK-MEL-28
RXF 393 = system: RXF 393
U-251 = system: U-251
NCI-H460 = system: NCI-H460
UO-31 = system: UO-31
KM-20L2 = system: KM-20L2
CCRF-CEM = system: CCRF-CEM
K562 = system: K562
SW-620 = system: SW-620
SK-OV-3 = system: SK-OV-3
786-0 = system: 786-0
T47D = system: T47D
BT-549 = system: BT-549
MDA-MB-231 = system: MDA-MB-231
HCT-116 = system: HCT-116
DMS-114 = system: DMS-114

Structure (SMILES) | GI50 (DMS-273) | GI50 (HCT-15) [µM] | GI50 (HT-29) | GI50 (LXFL 529) | GI50 (SK-MEL-28) | GI50 (RXF 393) | GI50 (U-251) | GI50 (NCI-H460) | GI50 (UO-31) | GI50 (KM-20L2) | GI50 (CCRF-CEM) | GI50 (K562) | GI50 (SW-620) | GI50 (SK-OV-3) | GI50 (786-0) | GI50 (T47D) | GI50 (BT-549) | GI50 (MDA-MB-231) | GI50 (HCT-116) | GI50 (DMS-114)
CNC(=O)CN(CC(N)=O)C(N)=O | > 100 µM (inactive) | > 100 | > 100 µM (inactive) | > 100 µM (inactive) | > 100 µM (inactive) | > 100 µM (inactive) | > 100 µM (inactive) | > 100 µM (inactive) | > 100 µM (inactive) | > 100 µM (inactive) | > 100 µM (inactive) | > 100 µM (inactive) | > 100 µM (inactive) | > 100 µM (inactive) | > 100 µM (inactive) | – | – | – | – | –
COc1cc2oc(-c3ccc4c(c3)OCO4)c(OC)c(=O)c2c(OC)c1O | – | 78.7 | > 100 µM (inactive) | – | > 100 µM (inactive) | > 100 µM (inactive) | 38.4 µM (inactive) | 64.6 µM (inactive) | 53 µM (inactive) | – | 34.7 µM (inactive) | 34.4 µM (inactive) | > 100 µM (inactive) | 39.4 µM (inactive) | 10.9 µM (inactive) | 31.5 µM (inactive) | 31.4 µM (inactive) | 51.6 µM (inactive) | 61 µM (inactive) | –
Cc1ccc(N2CCN(CCC(=O)O)CC2)cc1 | – | > 100 | > 100 µM (inactive) | – | > 100 µM (inactive) | > 100 µM (inactive) | > 100 µM (inactive) | > 100 µM (inactive) | > 100 µM (inactive) | – | 52.7 µM (inactive) | 2.94 µM (inactive) | > 100 µM (inactive) | > 100 µM (inactive) | > 100 µM (inactive) | > 100 µM (inactive) | > 100 µM (inactive) | > 100 µM (inactive) | > 100 µM (inactive) | –
NS(=O)(=O)c1ccccc1C(=O)N/N=C(\c1nc2ccc([N+](=O)[O-])cc2[nH]c1=O)C(O)c1ccc([N+](=O)[O-])cc1 (stereo unspecified) | – | 24.2 | > 100 µM (inactive) | > 100 µM (inactive) | > 100 µM (inactive) | > 100 µM (inactive) | > 100 µM (inactive) | > 100 µM (inactive) | 63.7 µM (inactive) | 46.2 µM (inactive) | 71.1 µM (inactive) | 56.5 µM (inactive) | > 100 µM (inactive) | > 100 µM (inactive) | > 100 µM (inactive) | – | – | – | 84.1 µM (inactive) | –
Clc1ccc(C2ON=C(c3ccccc3)N2C23CC4CC(CC(C4)C2)C3)cc1Cl (stereo unspecified) | – | > 10 | > 10 µM (inactive) | – | 7.93 µM (inactive) | > 10 µM (inactive) | > 10 µM (inactive) | > 10 µM (inactive) | > 10 µM (inactive) | – | > 10 µM (inactive) | > 10 µM (inactive) | > 10 µM (inactive) | > 10 µM (inactive) | > 10 µM (inactive) | > 10 µM (inactive) | > 10 µM (inactive) | > 10 µM (inactive) | > 10 µM (inactive) | –
CC(C(O)Cc1ccccc1)N(C)/N=N/c1ccc([N+](=O)[O-])cc1 (stereo unspecified) | – | 22.8 | 18.6 µM (inactive) | – | 18 µM (inactive) | 1.19 µM (inactive) | 17.7 µM (inactive) | 15.2 µM (inactive) | 15.2 µM (inactive) | – | 29.6 µM (inactive) | 27.2 µM (inactive) | 23.9 µM (inactive) | 22.3 µM (inactive) | 18.5 µM (inactive) | 23.8 µM (inactive) | 19.6 µM (inactive) | 14.6 µM (inactive) | 16.4 µM (inactive) | –
COc1ccc(/C=C(/c2ccccc2)c2c(C)cc(C)c(/C(=C\c3ccc(OC)cc3)c3ccccc3)c2/N=N/c2cc(C)cc(C)c2)cc1 | – | > 66.1 | 9.71 µM (inactive) | – | > 100 µM (inactive) | 32.3 µM (inactive) | 7.33 µM (inactive) | 15.5 µM (inactive) | > 67.5 µM (inactive) | – | 8.49 µM (inactive) | 11.7 µM (inactive) | 13.5 µM (inactive) | 41 µM (inactive) | 13.7 µM (inactive) | 4.9 µM (inactive) | 45.3 µM (inactive) | 6.76 µM (inactive) | 10 µM (inactive) | –
CCOC(=O)CC(=O)Sc1ccccc1 | 20.7 µM (inactive) | – | 22.7 µM (inactive) | – | 14.6 µM (inactive) | 10.3 µM (inactive) | 12.4 µM (inactive) | 24.7 µM (inactive) | 14.7 µM (inactive) | 21.2 µM (inactive) | 3.82 µM (inactive) | 19.4 µM (inactive) | 19.1 µM (inactive) | 24.5 µM (inactive) | 19.1 µM (inactive) | – | – | – | 12.6 µM (inactive) | 14.4 µM (inactive)
CC(=O)O[C@H]1CCC2[C@@H]3CCC4Cc5nc6c(nc5C[C@]4(C)C3CC[C@@]21C)CC1CC[C@@H]2C(CC[C@@]3(C)C2CC[C@@H]3C(C)CCCC(C)C)[C@@]1(C)C6 (stereo partly specified) | – | > 100 | > 100 µM (inactive) | – | > 100 µM (inactive) | > 100 µM (inactive) | > 100 µM (inactive) | > 100 µM (inactive) | > 100 µM (inactive) | – | > 100 µM (inactive) | > 100 µM (inactive) | > 100 µM (inactive) | > 100 µM (inactive) | > 100 µM (inactive) | > 100 µM (inactive) | > 100 µM (inactive) | > 100 µM (inactive) | > 100 µM (inactive) | –
